# From patent publication US8314123B2, “5, 6, or 7-substituted -3-(hetero) arylisoquinolinamine derivatives and therapeutic use thereof” (Rexahn Pharmaceuticals, Inc., priority 2006, dated 2012)
# System: PANC-1 (pancreas)
# Assay: In vitro cell proliferation assay (SRB), PANC-1
# Format: cell-based
# Conditions: Homo sapiens, SRB method, 96 hours, read-out: Inhibition of cell growth (IC50, μM) PANC-1
# Method: (§1) Cancer cell lines to determine the effect of 5, 6, or 7-substituted-3-(hetero)arylisoquinolinamine compounds were obtained from the following sources: Human MDA-MB-231 (breast), PC3 (prostate), HCT-15 (colon), HCT116 (colon), OVCAR-3 (ovary), Caki-1 (kidney), PANC-1 (pancreas), SNB-19 (glioblastoma) and SK-MEL-28 (melanoma) from the American Type Culture Collection (ATCC) (Manassas, Va.). PC3, OVCAR-3, SK-MEL-28 and SNB-19 were grown in RPMI1640 medium (Invitrogen, Carlsbad, Calif.) supplemented with 10% fetal bovine serum (“FBS”), 1 mM sodium pyruvate, 10 mM HEPES and 100 U/ml penicillin and 100 μg/ml streptomycin (“P/S”). MDA-MB-231, Caki-1, HCT-15 (colon) and PANC-1 cells were maintained in Dulbecco's modified Eagle's medium (“DMEM”, Invitrogen) supplemented with 10% FBS, P/S and 10 mM HEPES. HCT116 cells were maintained in DMEM supplemented with 10% FBS, P/S and 10 mM HEPES for in vitro cell proliferation assay and in RPMI1640 medium supplemented with 10% FBS, 1 mM sodium pyruvate, 10 mM HEPES and P/S for in vitro cell cycle analysis. All cells were incubated at 37° C. under humidified 5% CO2.
# (§2) The growth inhibition of the 5, 6, or 7-substituted-3-(hetero)arylisoquinolinamine derivatives against a variety of human tumor cells was evaluated to study the relative importance of particular substituent groups on the compounds. The 5, 6, or 7-substituted-3-(hetero)arylisoquinolinamine derivatives, prepared as described above, were tested with DMSO as a control.
# (§3) The growth inhibition assay of representative 5, 6, or 7-substituted-3-(hetero)arylisoquinolinamine derivatives against human tumor cell lines was performed using the Sulforhodamine B (“SRB”) method (Skehan et al., J. National Cancer Institute, 82: 1107-1112 (1990)). Briefly, exponentially growing tumor cells were seeded into a 96-well plate at a density of 2-3×10^3 cells/well and treated with 5, 6, or 7-substituted-3-(hetero)arylisoquinolinamine compounds the next day. Triplicate wells were used for each treatment. The cells were incubated with the various compounds for 96 hours at 37° C. in a humidified 5% CO2 atmosphere. After 96-hour incubation, cells were fixed with 10% trichloroacetic acid (“TCA”), incubated for 1 hour at 4° C., and washed 3 times with tap water. Subsequently, cells were stained with 0.4% sulforhodamine B in 1% acetic acid for 30 minutes, washed 4 times with 1% acetic acid, and air-dried again. After 5 minutes agitation in 10 mM Tris solution, the absorbance of each well was measured at 530 nm using Benchmark Plus Microplate reader (Bio-Rad Laboratories, Hercules, Calif.).
# (§4) To translate the OD530 values into the number of live cells in each well, the OD530 values were compared to those on standard OD530-versus-cell number curves generated for each cell line. The percent survival was calculated using the formula: % Survival=live cell number [test]/live cell number [control]×100
# (§5) The IC50 values were calculated by non-linear regression analysis.
row,IC50 [µM],Compound
1,0.68,"COc1ccccc1-c1cc2ccc(C)cc2c(N)n1 [Compound 37, 3-(2-Methoxyphenyl)-7-methylisoquinolin-1-amine]"
2,1.75,"COc1ccc(-c2cc3cc(C)ccc3c(N)n2)cc1OC [Compound 27, 3-(3,4-Dimethoxyphenyl)-6-methylisoquinolin-1-amine]"
3,0.83,"COc1cc2cc(-c3ccccc3C)nc(N)c2cc1OC [Compound 56, 6,7-Dimethoxy-3-o-tolylisoquinolin-1-amine]"
4,1.28,"Cc1cccc(-c2cc3cc(C)ccc3c(N)n2)c1 [Compound 35, 6-Methyl-3-m-tolylisoquinolin-1-amine]"
5,0.65,"COc1ccc2c(N)nc(-c3ccccc3)cc2c1 [Compound 11, 6-methoxy-3-phenylisoquinolin-1-amine]"

# System: Caki-1 (kidney)
# Assay: In vitro cell proliferation assay (SRB), Caki-1
# Format: cell-based
# Conditions: Homo sapiens, SRB method, 96 hours, read-out: Inhibition of cell growth (IC50, μM) Caki-1
# Method: as §1, §2, §3, §4, §5
row,Compound,IC50 [µM]
1,"COc1ccccc1-c1cc2ccc(C)cc2c(N)n1 [Compound 37, 3-(2-Methoxyphenyl)-7-methylisoquinolin-1-amine]",0.22
2,"COc1ccc(-c2cc3cc(C)ccc3c(N)n2)cc1OC [Compound 27, 3-(3,4-Dimethoxyphenyl)-6-methylisoquinolin-1-amine]",0.51
3,"COc1cc2cc(-c3ccccc3C)nc(N)c2cc1OC [Compound 56, 6,7-Dimethoxy-3-o-tolylisoquinolin-1-amine]",0.67
4,"Cc1cccc(-c2cc3cc(C)ccc3c(N)n2)c1 [Compound 35, 6-Methyl-3-m-tolylisoquinolin-1-amine]",0.69
5,"COc1ccc2c(N)nc(-c3ccccc3)cc2c1 [Compound 11, 6-methoxy-3-phenylisoquinolin-1-amine]",0.47

# System: MDA-MB-231 (breast)
# Assay: In vitro cell proliferation assay (SRB), MDA-MB-231
# Format: cell-based
# Conditions: Homo sapiens, SRB method, 96 hours, read-out: Inhibition of cell growth (IC50, μM) MDA-MB-231
# Method: as §1, §2, §3, §4, §5
row,IC50 [µM],Compound
1,0.32,"COc1ccccc1-c1cc2ccc(C)cc2c(N)n1 [Compound 37, 3-(2-Methoxyphenyl)-7-methylisoquinolin-1-amine]"
2,0.66,"COc1ccc(-c2cc3cc(C)ccc3c(N)n2)cc1OC [Compound 27, 3-(3,4-Dimethoxyphenyl)-6-methylisoquinolin-1-amine]"
3,0.54,"COc1cc2cc(-c3ccccc3C)nc(N)c2cc1OC [Compound 56, 6,7-Dimethoxy-3-o-tolylisoquinolin-1-amine]"
4,0.57,"Cc1cccc(-c2cc3cc(C)ccc3c(N)n2)c1 [Compound 35, 6-Methyl-3-m-tolylisoquinolin-1-amine]"
5,0.34,"COc1ccc2c(N)nc(-c3ccccc3)cc2c1 [Compound 11, 6-methoxy-3-phenylisoquinolin-1-amine]"

# System: HCT116 (colon)
# Assay: In vitro cell proliferation assay (SRB), HCT116
# Format: cell-based
# Conditions: Homo sapiens, HCT-116; SRB method, 96 hours; Table 3; read-out: Inhibition of cell growth (IC50, μM) HCT116
# Method: as §1, §2, §3, §4, §5
row,IC50 [µM],Compound
1,0.47,"COc1ccccc1-c1cc2ccc(C)cc2c(N)n1 [Compound 37, 3-(2-Methoxyphenyl)-7-methylisoquinolin-1-amine]"
2,0.85,"COc1ccc(-c2cc3cc(C)ccc3c(N)n2)cc1OC [Compound 27, 3-(3,4-Dimethoxyphenyl)-6-methylisoquinolin-1-amine]"
3,0.78,"COc1cc2cc(-c3ccccc3C)nc(N)c2cc1OC [Compound 56, 6,7-Dimethoxy-3-o-tolylisoquinolin-1-amine]"
4,0.59,"Cc1cccc(-c2cc3cc(C)ccc3c(N)n2)c1 [Compound 35, 6-Methyl-3-m-tolylisoquinolin-1-amine]"
5,0.45,"COc1ccc2c(N)nc(-c3ccccc3)cc2c1 [Compound 11, 6-methoxy-3-phenylisoquinolin-1-amine]"

# System: PC3 (prostate)
# Assay: In vitro cell proliferation assay (SRB), PC3
# Format: cell-based
# Conditions: Homo sapiens; SRB method, 96 hours; read-out: Inhibition of cell growth (IC50, μM) PC3
# Method: as §1, §2, §3, §4, §5
row,IC50 [µM],Compound
1,1.01,"COc1ccccc1-c1cc2ccc(C)cc2c(N)n1 [Compound 37, 3-(2-Methoxyphenyl)-7-methylisoquinolin-1-amine]"
2,2.69,"COc1ccc(-c2cc3cc(C)ccc3c(N)n2)cc1OC [Compound 27, 3-(3,4-Dimethoxyphenyl)-6-methylisoquinolin-1-amine]"
3,1.25,"COc1cc2cc(-c3ccccc3C)nc(N)c2cc1OC [Compound 56, 6,7-Dimethoxy-3-o-tolylisoquinolin-1-amine]"
4,1.19,"Cc1cccc(-c2cc3cc(C)ccc3c(N)n2)c1 [Compound 35, 6-Methyl-3-m-tolylisoquinolin-1-amine]"
5,0.77,"COc1ccc2c(N)nc(-c3ccccc3)cc2c1 [Compound 11, 6-methoxy-3-phenylisoquinolin-1-amine]"

# System: SK-MEL-28 (melanoma)
# Assay: In vitro cell proliferation assay (SRB), SK-MEL-28
# Format: cell-based
# Conditions: Homo sapiens, SRB method, 96 hours, read-out: Inhibition of cell growth (IC50, μM) SK-MEL-28
# Method: as §1, §2, §3, §4, §5
row,IC50 [µM],Compound
1,0.67,"COc1ccccc1-c1cc2ccc(C)cc2c(N)n1 [Compound 37, 3-(2-Methoxyphenyl)-7-methylisoquinolin-1-amine]"
2,1.41,"COc1ccc(-c2cc3cc(C)ccc3c(N)n2)cc1OC [Compound 27, 3-(3,4-Dimethoxyphenyl)-6-methylisoquinolin-1-amine]"
3,0.91,"COc1cc2cc(-c3ccccc3C)nc(N)c2cc1OC [Compound 56, 6,7-Dimethoxy-3-o-tolylisoquinolin-1-amine]"
4,0.72,"Cc1cccc(-c2cc3cc(C)ccc3c(N)n2)c1 [Compound 35, 6-Methyl-3-m-tolylisoquinolin-1-amine]"
5,0.46,"COc1ccc2c(N)nc(-c3ccccc3)cc2c1 [Compound 11, 6-methoxy-3-phenylisoquinolin-1-amine]"

# System: OVCAR-3 (ovary)
# Assay: In vitro cell proliferation assay (SRB), OVCAR3
# Format: cell-based
# Conditions: Homo sapiens, SRB method, 96 hours, read-out: Inhibition of cell growth (IC50, μM) OVCAR3
# Method: as §1, §2, §3, §4, §5
row,IC50 [µM],Compound
1,0.51,"COc1ccccc1-c1cc2ccc(C)cc2c(N)n1 [Compound 37, 3-(2-Methoxyphenyl)-7-methylisoquinolin-1-amine]"
2,0.57,"COc1ccc(-c2cc3cc(C)ccc3c(N)n2)cc1OC [Compound 27, 3-(3,4-Dimethoxyphenyl)-6-methylisoquinolin-1-amine]"
3,0.38,"COc1cc2cc(-c3ccccc3C)nc(N)c2cc1OC [Compound 56, 6,7-Dimethoxy-3-o-tolylisoquinolin-1-amine]"
4,0.47,"Cc1cccc(-c2cc3cc(C)ccc3c(N)n2)c1 [Compound 35, 6-Methyl-3-m-tolylisoquinolin-1-amine]"
5,0.27,"COc1ccc2c(N)nc(-c3ccccc3)cc2c1 [Compound 11, 6-methoxy-3-phenylisoquinolin-1-amine]"

# System: SNB-19 (glioblastoma)
# Assay: In vitro cell proliferation assay (SRB), SNB19
# Format: cell-based
# Conditions: Homo sapiens, SRB method, 96 hours, read-out: Inhibition of cell growth (IC50, μM) SNB19
# Method: as §1, §2, §3, §4, §5
row,IC50 [µM],Compound
1,0.78,"COc1ccccc1-c1cc2ccc(C)cc2c(N)n1 [Compound 37, 3-(2-Methoxyphenyl)-7-methylisoquinolin-1-amine]"
2,2.15,"COc1ccc(-c2cc3cc(C)ccc3c(N)n2)cc1OC [Compound 27, 3-(3,4-Dimethoxyphenyl)-6-methylisoquinolin-1-amine]"
3,0.56,"COc1cc2cc(-c3ccccc3C)nc(N)c2cc1OC [Compound 56, 6,7-Dimethoxy-3-o-tolylisoquinolin-1-amine]"
4,0.75,"Cc1cccc(-c2cc3cc(C)ccc3c(N)n2)c1 [Compound 35, 6-Methyl-3-m-tolylisoquinolin-1-amine]"
5,0.63,"COc1ccc2c(N)nc(-c3ccccc3)cc2c1 [Compound 11, 6-methoxy-3-phenylisoquinolin-1-amine]"
